Results published in patent publication US10138255B2, “Piperazine derivatives as HIV protease inhibitors” (Merck Sharp & Dohme Corp., priority 2014, dated 2018).

System: HIV-1 (H9IIIB strain)
Test: Cell-Based HIV Infection Assay Using a Reporter (MT4-GFP cells)
Conditions: Human immunodeficiency virus 1, inflection point (IP) of viral growth inhibition; MT4-GFP cells infected with HIV-1 H9IIIB; 50% normal human serum; mean of at least two independent experiments; read-out: Cell Based IP (50% NHS)
In short: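 Inflection point from a 4-parameter curve of % viral growth inhibition, normalised to DMSO and triple-drug controls, using the 48 h/24 h ratio of GFP-positive cells (R0). MT4-GFP cells pre-infected 24 h with HIV-1 H9IIIB at low MOI; compounds tested in 50% normal human serum, 0.4% DMSO; mean of ≥2 experiments.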

Compound	EC50 [nM]
COC(=O)N[C@H](C(=O)N[C@H]1CCC[C@@H]1CC[C@H]1CN[C@@H]2CCCS(=O)(=O)N1C2)[C@@H](c1ccc(F)cc1)C1CCOC(C)(C)C1 (stereo partly drawn) [Example 50, methyl [(1S,2R)-2-(2,2-dimethyltetrahydro-2H-pyran-4-yl)-1-{[(1S,2R)-2-{2-[(6R,9S)-2,2-dioxido-2-thia-1,7-diazabicyclo[4.3.1]dec-9-yl]ethyl}cyclopentyl]carbamoyl}-2-(4-fluorophenyl)ethyl]carbamate]	28
COC(=O)N[C@H](C(=O)Nc1cccc(F)c1CCC1CNC2CCCS(=O)(=O)N1C2)[C@@H](c1ccc(Cl)cc1)C(C)C (stereo partly drawn) [Example 3, Methyl [(1S,2R)-2-(4-chlorophenyl)-1-({2-[2-(2,2-dioxido-2-thia-1,7-diazabicyclo[4.3.1]dec-9-yl)ethyl]-3-fluorophenyl}carbamoyl)-3-methylbutyl]carbamate]	14
